Experimental data as given in patent publication US9149038B2, “4-amino-6-(heterocyclic)picolinates and 6-amino-2-(heterocyclic)pyrimidine-4-carboxylates and their use as herbicides” (Dow AgroSciences LLC, priority 2013, dated 2015).
Where two headings read alike, the source gives them in different places.

Assays:
[1] = test system: Key Broadleaf Weed and Crop Species; assay: Post-Emergent Test II: postemergent herbicidal activity, visual rating after 14 d (Table 7); format: in vivo; settings: post-emergence, 336 h; for pest or weed control at 35 g/ha: 35 g ai/ha; for pest or weed control at 70 g/ha: 70 g ai/ha; for pest or weed control at 140 g/ha: 140 g ai/ha
How it was run: (§1)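 Track-sprayed young seedlings (first/second true leaf) at 187 L/ha across a 2-fold rate series from the high rate down to 1/16×. Kept in greenhouse at 23-29° C day, subirrigated. Injury rated by eye after 14 d, 0 = no injury, 100 = complete kill.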

[2] = test system: Key Grass and Sedge Weeds as well as Grass Crops; assay: Post-Emergent Test II: postemergent herbicidal activity, visual rating after 14 d (Table 8); format: in vivo; settings: post-emergence, 336 h; for pest or weed control at 35 g/ha: 35 g ai/ha; for pest or weed control at 70 g/ha: 70 g ai/ha; for pest or weed control at 140 g/ha: 140 g ai/ha
How it was run: as §1

[3] = lambsquarters (Chenopodium album), read-out: Visual Growth Reduction (%) 14 Days After Application CHEAL
[4] = oilseed rape, canola (Brassica napus), read-out: Visual Growth Reduction (%) 14 Days After Application BRSNN
[5] = redroot pigweed (Amaranthus retroflexus), read-out: Visual Growth Reduction (%) 14 Days After Application AMARE
[6] = sunflower (Helianthus annuus), read-out: Visual Growth Reduction (%) 14 Days After Application HELAN
[7] = velvetleaf (Abutilon theophrasti), read-out: Visual Growth Reduction (%) 14 Days After Application ABUTH
[8] = wild poinsettia (Euphorbia heterophylla), read-out: Visual Growth Reduction (%) 14 Days After Application EPHHL
[9] = barnyardgrass (Echinochloa crus-galli), read-out: Visual Growth Reduction (%) 14 Days After Application ECHCG
[10] = giant foxtail (Setaria faberi), read-out: Visual Growth Reduction (%) 14 Days After Application SETFA
[11] = maize, corn (Zea mays), read-out: Visual Growth Reduction (%) 14 Days After Application ZEAMX
[12] = rice (Oryza sativa), read-out: Visual Growth Reduction (%) 14 Days After Application ORYSA
[13] = wheat, spring (Triticum aestivum), read-out: Visual Growth Reduction (%) 14 Days After Application TRZAS
[14] = yellow nutsedge (Cyperus esculentus), read-out: Visual Growth Reduction (%) 14 Days After Application CYPES

Row | Structure (SMILES) | pest or weed control at 35 g/ha [1, 3] [%] | pest or weed control at 70 g/ha [1, 3] [%] | pest or weed control at 140 g/ha [1, 3] [%] | pest or weed control at 35 g/ha [1, 4] [%] | pest or weed control at 70 g/ha [1, 4] [%] | pest or weed control at 140 g/ha [1, 4] [%] | pest or weed control at 35 g/ha [1, 5] [%] | pest or weed control at 70 g/ha [1, 5] [%] | pest or weed control at 140 g/ha [1, 5] [%] | pest or weed control at 35 g/ha [1, 6] [%] | pest or weed control at 70 g/ha [1, 6] [%] | pest or weed control at 140 g/ha [1, 6] [%] | pest or weed control at 35 g/ha [1, 7] [%] | pest or weed control at 70 g/ha [1, 7] [%] | pest or weed control at 140 g/ha [1, 7] [%] | pest or weed control at 35 g/ha [1, 8] [%] | pest or weed control at 70 g/ha [1, 8] [%] | pest or weed control at 140 g/ha [1, 8] [%] | pest or weed control at 35 g/ha [2, 9] [%] | pest or weed control at 70 g/ha [2, 9] [%] | further results
1 | C=Cc1c(C(=O)OC)nc(-c2cc3c(cc2F)OC(F)(F)O3)c(F)c1N [Compound 27] | 0 to 29 | 0 to 29 | 0 to 29 | 0 to 29 | 0 to 29 | 0 to 29 | 0 to 29 | 0 to 29 | 0 to 29 | 30 to 44 | 75 to 84 | 85 to 94 | 0 to 29 | 0 to 29 | 0 to 29 | 0 to 29 | 0 to 29 | 0 to 29 | 0 to 29 | 0 to 29 | pest or weed control at 140 g/ha [2, 9]: 0 to 29%; pest or weed control at 35 g/ha [2, 10]: 0 to 29%; pest or weed control at 70 g/ha [2, 10]: 0 to 29%; pest or weed control at 140 g/ha [2, 10]: 0 to 29%; pest or weed control at 35 g/ha [2, 11]: 0 to 29%; pest or weed control at 70 g/ha [2, 11]: 0 to 29%; pest or weed control at 140 g/ha [2, 11]: 30 to 44%; pest or weed control at 35 g/ha [2, 12]: 0 to 29%; pest or weed control at 70 g/ha [2, 12]: 0 to 29%; pest or weed control at 140 g/ha [2, 12]: 0 to 29%; pest or weed control at 35 g/ha [2, 13]: 0 to 29%; pest or weed control at 70 g/ha [2, 13]: 0 to 29%; pest or weed control at 140 g/ha [2, 13]: 0 to 29%; pest or weed control at 35 g/ha [2, 14]: 0 to 29%; pest or weed control at 70 g/ha [2, 14]: 0 to 29%; pest or weed control at 140 g/ha [2, 14]: 0 to 29%
2 | C=Cc1c(C(=O)OC)nc(-c2cc3c(cc2F)OCO3)c(F)c1N [Compound 31] | 0 to 29 | 0 to 29 | 0 to 29 | 0 to 29 | 0 to 29 | 45 to 59 | 85 to 94 | 85 to 94 | 95 to 100 | 45 to 59 | 85 to 94 | 85 to 94 | 0 to 29 | 0 to 29 | 45 to 59 | 95 to 100 | 95 to 100 | 95 to 100 | 0 to 29 | 60 to 74 | pest or weed control at 140 g/ha [2, 9]: 75 to 84%; pest or weed control at 35 g/ha [2, 10]: 0 to 29%; pest or weed control at 70 g/ha [2, 10]: 0 to 29%; pest or weed control at 140 g/ha [2, 10]: 0 to 29%; pest or weed control at 35 g/ha [2, 11]: 0 to 29%; pest or weed control at 70 g/ha [2, 11]: 30 to 44%; pest or weed control at 140 g/ha [2, 11]: 45 to 59%; pest or weed control at 35 g/ha [2, 12]: 0 to 29%; pest or weed control at 70 g/ha [2, 12]: 0 to 29%; pest or weed control at 140 g/ha [2, 12]: 0 to 29%; pest or weed control at 35 g/ha [2, 13]: 0 to 29%; pest or weed control at 70 g/ha [2, 13]: 0 to 29%; pest or weed control at 140 g/ha [2, 13]: 0 to 29%; pest or weed control at 35 g/ha [2, 14]: 0 to 29%; pest or weed control at 70 g/ha [2, 14]: 0 to 29%; pest or weed control at 140 g/ha [2, 14]: 0 to 29%
3 | C=Cc1c(C(=O)O)nc(-c2cc3c(cc2F)OC(F)(F)O3)c(F)c1N [Compound 28] | 0 to 29 | 0 to 29 | 0 to 29 | 0 to 29 | 0 to 29 | 60 to 74 | 0 to 29 | 0 to 29 | 0 to 29 | 85 to 94 | 85 to 94 | 95 to 100 | 0 to 29 | 0 to 29 | 60 to 74 | 95 to 100 | 95 to 100 | 95 to 100 | 60 to 74 | 75 to 84 | pest or weed control at 140 g/ha [2, 9]: 75 to 84%; pest or weed control at 35 g/ha [2, 10]: 0 to 29%; pest or weed control at 70 g/ha [2, 10]: 45 to 59%; pest or weed control at 140 g/ha [2, 10]: 60 to 74%; pest or weed control at 35 g/ha [2, 11]: 60 to 74%; pest or weed control at 70 g/ha [2, 11]: 60 to 74%; pest or weed control at 140 g/ha [2, 11]: 75 to 84%; pest or weed control at 35 g/ha [2, 12]: 0 to 29%; pest or weed control at 70 g/ha [2, 12]: 0 to 29%; pest or weed control at 140 g/ha [2, 12]: 0 to 29%; pest or weed control at 35 g/ha [2, 13]: 0 to 29%; pest or weed control at 70 g/ha [2, 13]: 0 to 29%; pest or weed control at 140 g/ha [2, 13]: 30 to 44%; pest or weed control at 35 g/ha [2, 14]: 95 to 100%; pest or weed control at 70 g/ha [2, 14]: 95 to 100%; pest or weed control at 140 g/ha [2, 14]: 95 to 100%
4 | COC(=O)c1nc(-c2cc3c(cc2F)OCO3)c(F)c(N)c1OC [Compound 26] | 0 to 29 | 0 to 29 | 0 to 29 | 45 to 59 | 60 to 74 | 75 to 84 | 0 to 29 | 0 to 29 | 85 to 94 | 85 to 94 | 95 to 100 | 95 to 100 | 0 to 29 | 0 to 29 | 0 to 29 | 95 to 100 | 95 to 100 | 95 to 100 | 45 to 59 | 60 to 74 | pest or weed control at 140 g/ha [2, 9]: 75 to 84%; pest or weed control at 35 g/ha [2, 10]: 0 to 29%; pest or weed control at 70 g/ha [2, 10]: 0 to 29%; pest or weed control at 140 g/ha [2, 10]: 0 to 29%; pest or weed control at 35 g/ha [2, 11]: 45 to 59%; pest or weed control at 70 g/ha [2, 11]: 45 to 59%; pest or weed control at 140 g/ha [2, 11]: 60 to 74%; pest or weed control at 35 g/ha [2, 12]: 0 to 29%; pest or weed control at 70 g/ha [2, 12]: 0 to 29%; pest or weed control at 140 g/ha [2, 12]: 0 to 29%; pest or weed control at 35 g/ha [2, 13]: 0 to 29%; pest or weed control at 70 g/ha [2, 13]: 0 to 29%; pest or weed control at 140 g/ha [2, 13]: 0 to 29%; pest or weed control at 35 g/ha [2, 14]: 0 to 29%; pest or weed control at 70 g/ha [2, 14]: 0 to 29%; pest or weed control at 140 g/ha [2, 14]: 0 to 29%
